# Data published in patent US20040121965A1, “Method of treating resistant tumors” (Wyeth Holdings Corporation, priority 2002, published 2004).
# Marks after values point to notes of the source that are not given here.
# Tests used:
# MX-1W tumor = assay: Growth of tumors in nude mice, MX-1W xenograft; type: in vivo; conditions: MX-1W; vincristine 1 mg/kg IP, days 1,5,9
# Text: (§1) 2.4. Growth of Tumors in Nude Mice.
# KB-8.5 tumor = assay: Growth of tumors in nude mice, KB-8-5 xenograft; type: in vivo; conditions: vincristine 1 mg/kg IP, days 1,5,9
# Text: as §1
# HCT-15 tumor = assay: Growth of tumors in nude mice, HCT-15 xenograft; type: in vivo; conditions: vincristine 1 mg/kg IP, days 1,5,9
# Text: as §1
# [1] = test system: Human Epidermoid Carcinoma KB-3-1; assay: Growth of tumors in nude mice, KB-3-1 xenograft; type: in vivo; conditions: KB-3-1; vincristine 1 mg/kg IP, days 1,5,9
# Method: as §1
# In these experiments, xenografts are implanted subcutaneously into the flanks of nude mice. […] Relative tumor mass compared to controls are assessed during the 21-day post-staging period.
# Groups of 5 female nu/nu mice are injected with 1.5×10^6 KB-3-1 (A) or Lox cells (B). […] Relative tumor growth is determined during the experiment and % T/C calculated. Statistical analyses are Student's t-test of treated time points vs. vehicle (*, P<0.05; **, P<0.01)
# DLD-1 tumor = assay: Growth of tumors in nude mice, DLD-1 xenograft; type: in vivo; conditions: vincristine 1 mg/kg IP, days 1,5,9
# Text: as §1
# [2] = test system: human carcinoma xenografts; assay: Growth of tumors in nude mice, several xenograft models and tolerated dose; type: in vivo; conditions: DLD-1, MX-1W or HCT-15 tumors; at or near the MTD
# Text: as §1
# [3] = test system: Human Melanoma Carcinoma Lox; conditions: Lox; vincristine 1 mg/kg IP, days 1,5,9
# A549.EpoB40 = type: cell-based; conditions: vs A549; below 1 = sensitive
# Text: (§2) Cells lines with previously known mechanisms of resistance. […] Res. 8: 207-218,1996); KB-3-1 (parental derived from an epidermoid carcinoma), KB-8.5, KB-V1 (Akiyama S-I, Fojo A, Hanover J A, Pastan I, Gottesman M M. Isolation and genetic characterization of human KB cell lines resistant to multiple drugs. Somatic Cell Mol. Gen., 11: 117-126,1985; Shen D-W, Cardarelli C, Hwang J, Cornwell M, Richert N, Ishii S, Pastan I, Gottesman MM. […] J. Biol. Chem., 261: 7762-7770, 1986); and HL-60 (parental derived from human leukemia) and HL60/AR (McGrath T., Center M. S. Adriamycin resistance in HL60 cells in the absence of detectable P-glycoprotein. Biochem. Res. Commun., 145:1171-1176,1987); A549 and A549.EpoB40 (He L., Yang C.-P.H., Horwitz S. B. Mutations in p-tubulin map to domains involved in regulation of microtubule stability in epothilone-resistant cell lines. Molecular Cancer Therapeutics. 1: 3-10, 2001). HCT-15 human colon carcinoma and DLD-1 human colon carcinoma are obtained from American Tissue Culture Collection. The MX-1W carcinoma is a Wyeth variant orginally obtained as MX-1 breast carcinoma from the National Cancer Institute. Cell lines selected for resistance to Representative Example 129. KB-3-1 cells are selected for resistance to Example 129 by chronically exposing cells to increasing concentrations of Example 129.
# 2.2. Cell Survival Assay: Standard Pharmacological Test Procedure. The concentration of candidate inhibitor required to inhibit 50% of cell growth (IC50) is done according to previously reported methods. […] Compounds are serially diluted into media as 2× stocks and 100 μl added to cells in duplicate. Compounds are incubated with cells for 3 days. At the end of the incubation period the sulforhodamine B (SRB) assay, which measures protein content as an assessment of cell survival, is performed as described previously (Skehan P, Storeng R, Scudiero D, Monks A, McMahon J, Vistica D, Warren J T, Bokesch H, Kenney S, Boyd MR. New calorimetric cytotoxicity assay for anticancer-drug screening. J Natl Cancer Inst 1990 Jul 4;82(13):1107-12) with some modification as follows. For KB-3-1 cells with 20% FCS, media is gently decanted and replaced with 200 μl of serum-free media mixed with cold 50% TCA for a final concentration of 10% TCA. The plates are incubated for 1 hr at 4° C., followed by washing 5 times in cold distilled water, then air dried overnight. The fixed cells are stained for 10 min with 80 μl of 0.04% SRB solution prepared in 1% glacial acetic acid. Stain is discarded and plates washed 5 times in 1% glacial acetic acid, then air-dried until completely dry. […] Absorbance is read on a Victor V multi-label plate reader (Perkin Elmer, Gaithersburg, Md.).
# KB-HTI-4.0 = assay: Cell survival assay, KB-3-1 line made resistant to Example 129 (KB-HTI-4.0); type: cell-based, human
# Text: as §2
# 2.2. Cell Survival Assay: Standard Pharmacological Test Procedure. The concentration of candidate inhibitor required to inhibit 50% of cell growth (IC50) is done according to previously reported methods. […] Compounds are serially diluted into media as 2× stocks and 100 μl added to cells in duplicate. Compounds are incubated with cells for 3 days. At the end of the incubation period the sulforhodamine B (SRB) assay, which measures protein content as an assessment of cell survival, is performed as described previously (Skehan P, Storeng R, Scudiero D, Monks A, McMahon J, Vistica D, Warren J T, Bokesch H, Kenney S, Boyd MR. New calorimetric cytotoxicity assay for anticancer-drug screening. J Natl Cancer Inst 1990 Jul 4;82(13):1107-12) with some modification as follows. For KB-3-1 cells with 20% FCS, media is gently decanted and replaced with 200 μl of serum-free media mixed with cold 50% TCA for a final concentration of 10% TCA. The plates are incubated for 1 hr at 4° C., followed by washing 5 times in cold distilled water, then air dried overnight. The fixed cells are stained for 10 min with 80 μl of 0.04% SRB solution prepared in 1% glacial acetic acid. Stain is discarded and plates washed 5 times in 1% glacial acetic acid, then air-dried until completely dry. Stained cell product is dissolved in 150 μl of 10 mM Trizma Base and placed on a shaker for 20 minutes until fully dissolved. Absorbance is read on a Victor V multi-label plate reader (Perkin Elmer, Gaithersburg, Md.).
# Cells are selected for resistance to Example 129 to understand the frequency and mechanistic basis of resistance.
# KB-3-1 = assay: Cell survival assay (SRB), KB-3-1; type: cell-based, human; conditions: KB-3-1 parental; Table 8; read-out: KB-3-1 IC50
# Summary of the method: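 SRB protein stain as survival read-out; IC50 = conc. giving 50% growth inhibition. Compound serially diluted, duplicate wells, 3 d exposure; TCA fixation (10% final, 1 h, 4 °C), 0.04% SRB/1% acetic acid 10 min, solubilised in 10 mM Trizma Base, A read.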
compound,measurement,setting,value
CC[C@]1(O)C[C@H]2CN(CCc3c([nH]c4ccccc34)[C@@](C(=O)OC)(c3cc4c(cc3OC)N(C=O)[C@H]3[C@@](O)(C(=O)OC)[C@H](OC(C)=O)[C@]5(CC)C=CCN6CC[C@]43[C@@H]65)C2)C1 [vincristine],% T/C on day 7,MX-1W tumor,65%
same,% T/C on day 14,MX-1W tumor,61%
same,% T/C on day 6,KB-8.5 tumor,71%
same,% T/C on day 14,KB-8.5 tumor,85%
same,% T/C on day 21,KB-8.5 tumor,81%
same,% T/C on day 9,HCT-15 tumor,91%
same,% T/C on day 13,HCT-15 tumor,81%
same,% T/C on day 17,HCT-15 tumor,95%
same,% T/C on day 21,HCT-15 tumor,107%
same,% T/C on day 7,[1],15** %
same,% T/C on day 14,[1],12** %
same,% T/C on day 21,[1],17** %
same,% T/C on day 7,DLD-1 tumor,113%
same,% T/C on day 14,DLD-1 tumor,119%
same,% T/C on day 21,DLD-1 tumor,177%
same,response of tumors,[2],no response
same,% T/C on day 7,[3],13** %
same,% T/C on day 12,[3],3** %
epothilone B,resistance of A549.EpoB40 cells,A549.EpoB40,107 fold
same,IC50,"KB-HTI-4.0; KB-3-1 line made resistant to Example 129, Table 8, read-out: KB-HTI-4.0 IC50",2.37 ± 2.2 nM
same,(RR) relative resistance vs. parental cells,KB-HTI-4.0; KB-HTI-4.0 vs KB-3-1,(4)
same,IC50,KB-3-1,0.63 ± 0.08 nM
